Measured values: US9084766B2, “Compounds and compositions for targeting cancer stem cells” (Boston Biomedical, Inc., priority 2010, dated 2015)
Entries after “also recorded” stand apart in the source; their conditions may differ.

What was measured:
[1] = system: FaDu human head and neck cancer; experiment: Antitumor activity in subcutaneous FaDu xenograft mice; format: in vivo
Procedure: In the studies shown in FIG. 8, immunosuppressed mice with established subcutaneous FaDu human head and neck cancer were given indicated amount of hand grounded Compound 1 with Crystal Form 1, or vehicle control orally (po). Compound 1 was formulated in […]™. All regimens were administered daily (qd). Tumor sizes were evaluated periodically during treatment.
In the study shown in FIG. 9, immunosuppressed mice with established subcutaneous FaDu human head and neck cancer were given 100 mg/kg of micronized Compound 1 produced with the synthetic process described in FIGS. 5A and 5B (first crop), or vehicle control orally (po). Compound 1 was formulated in […]™. All regimens were administered daily (qd). Tumor sizes were evaluated periodically during treatment. Form 2 has been successfully manufactured by a current good manufacturing practice (cGMP) process and received approval from the FDA and Health Canada to be used in clinical trials.
Form 3 can only be generated from Form 1 using a specially designed slurry process described herein. […] In the study shown in FIG. 10, immunosuppressed mice with established subcutaneous FaDu human head and neck cancer were given 200 mg/kg of Compound 1 with hand grounded Crystal Form 1 or Form 3, or vehicle control orally (po). Compound 1 was formulated in gelucire. All regimens were administered daily (qd). Tumor sizes were evaluated periodically during treatment. This polymorph has been successfully manufactured by a cGMP process and received approval from FDA and Health Canada to be used in clinical trials.
The anti-tumor activity of particles of Compound 1 with different particle size ranges is illustrated in FIG. 15, and the pharmacokinetic data for particles of Compound 1 with different particle size ranges is illustrated in FIGS. 16-18. In the study shown in FIG. 15, immunosuppressed mice with established subcutaneous FaDu human head and neck cancer were given indicated amount of Compound 1 with indicated particle size, or vehicle control orally (po). All regimens were administered daily (qd). Tumor size was evaluated periodically.
In an experiment, a formulation of Compound 1 particles sieved to 160 micron was tested in the model of immunosuppressed mice with established subcutaneous xenograft FaDu human head and neck cancer. The pharmaceutical composition was formulated as 80 mg/ml in 9% Gelucire, 20% Vitamin E TPGS (Table 3). […] All regimens were administered daily (qd).
In an experiment, Compound 1 crystals were milled to a median particle size of about 20 micron. […] All regimens were administered daily (qd).
FaDu human head and neck cancer cells were inoculated subcutaneously into female athymic nude mice (6×10^6 cells/mouse) and allowed to form palpable tumors. When the tumors reached approximately 100 mm^3, the animals were treated orally (po) with Compound 1 at 100 mg/kg or vehicle control daily. Compound 1 was formulated at 10 mg/ml in 20% gelucire. Tumors and bodyweights were measured throughout treatment (FIG. 15).
Daily examinations into the health status of each animal were also conducted. Body weights were checked every three days. Food and water was supplied daily according to the animal husbandry procedures of the facility. Treatment producing>20% lethality and or >20% net body weight loss were considered toxic. Results are expressed as mean tumor volume (mm^3)±SE. P Values<0.05 are considered to be statistically relevant.
Male or female athymic nude mice 4-5 weeks (Charles River Laboratories, Wilmington, Mass.), were acclimated to the animal housing facility for at least 1 week before study initiation. […]

[2] = Phase I clinical trial: plasma pharmacokinetics; format: in vivo, human; settings: clinical trials (FIG. 11, FIG. 12)
Procedure: A favorable PK profile with oral bid dosing was also observed. The plasma concentration reached several folds over efficacious concentration (in vitro IC50).
In yet another suitable dosing regimen, Compound 1 is administered with food which delays the Tmax (Table 13).

[3] = system: advanced solid tumors; experiment: Phase I clinical trial: tumor response (RECIST 1.1) and progression free survival; format: in vivo, human; settings: clinical trials
Description: As of Feb. 7, 2011, 42 cancer patients with various advanced solid tumors who have failed chemotherapies were enrolled in the study.
Of the 42 patients dosed, 24 were evaluable for tumor response as of Feb. 7, 2011; 16 (16/24 evaluable patients) achieved stable disease (8 to 75+ weeks).

## CC(=O)c1cc2c(o1)C(=O)c1ccccc1C2=O [Crystal Form 1, 2-acetyl-4H,9H-naphtho[2,3-b]furan-4,9-dione]
[1]; hand grounded Crystal Form 1 in GELUCIRE, po qd (FIG. 8)
  anti-tumor activity: limited anti-tumor activity; also recorded: low anti-tumor activity

## CC(=O)c1cc2c(o1)C(=O)c1ccccc1C2=O [Crystal Form 2, 2-acetyl-4H,9H-naphtho[2,3-b]furan-4,9-dione]
[1]; 100 mg/kg micronized (first crop) in GELUCIRE, po qd (FIG. 9)
  anti-tumor activity: potent anti-tumor activity
[2]
  pharmacokinetics in cancer patients: desirable pharmacokinetics
[3]
  anti-tumor activity in cancer patients: strong signs of anti-tumor activity

## CC(=O)c1cc2c(o1)C(=O)c1ccccc1C2=O [Crystal Form 3, 2-acetyl-4H,9H-naphtho[2,3-b]furan-4,9-dione]
[1]; 200 mg/kg hand grounded, in gelucire, po qd (FIG. 10)
  antitumor activities: potent antitumor activities
